Entries after “also recorded” stand apart in the source; their conditions may differ.
B1: Mango II - A22U: Mango-II point mutant; SEQ ID NO: 6903 / 6905 (nucleic acid)
chain 1: GCGUACGAAGGAGAGGAGAGGUAGAGGAGAGUACGC
chain 2: GGCACGUACGAAGGAGAGGAGAGGUAGAGGAGAGUACGUGC
modifications: chemistry not given here

Key:
[1] = Fluorescence titration, binding affinity for TO1-ME; details: ligand TO1-ME
Text: (§1) We determined the affinity and fluorescence enhancement of four compounds: TO1-OAc (TO1-acetate), TO1-ME (TO1-methylester), TO1-PA (TO1-propanylamide), TO1-PE (TO1-pentenoylester) (FIG. 42, Table 8 & 9). Binding affinity and fluorescence enhancement of TO1-OAc is drastically diminished, and nearly identical between the wild-type and A22U mutant. […] Further extension of the linker stabilizes the binding pocket by stacking on T3 but becomes sterically hindered by a bulky purine in position 22. The A22U mutation would limit steric clashes while preventing misfolding of the G-quadruplex core. Thus, the improved properties of the Mango-II A22U mutant may arise from improved packing of the linker of the fluorophore with an RNA with a homogeneous or predominant conformation.
(§2) Fluorescence readings were recorded using a Varian Cary Eclipse Spectrophotometer set to measure at the maximum excitation and emission wavelengths of the Mango II aptamer dye complex. Fluorescence titrations were performed in Mango selection buffer (WB: 140 mM KCl, 1 mM MgCl2, 10 mM NaH2PO4 pH 7.2, 0.05% Tween-20).

[2] = Fluorescence titration, binding affinity for TO1-OAc; details: ligand TO1-OAc
Text: as §1, §2

[3] = Salt dependence of Mango/TO1-Biotin fluorescence: Mg2+ titration; details: in the presence of potassium; Mg2+ 256 mM
Description: (§3) FIG. 10|Salt dependence of new Mango variants. Dependence of fluorescence of each Mango for (a) K^+, (b) Na^+ in place of K^+, and (c) Mg^2+ ions in a buffer containing 140 mM K^+. […] 10 mM Tris buffer (pH 7.2) was used in place of phosphate of the WB buffer to avoid monovalent counter ions. Color-coding is as follows: Black—Mango I, Blue—Mango II, Green—Mango III, Orange—Mango IV. Hill coefficients are fitted to dark points. Points in lighter shade have been excluded from the fit. Error bars are standard deviations of three replicates.

[4] = Salt dependence of Mango/TO1-Biotin fluorescence: K+ titration; type: binding; details: 25 nM RNA, 50 nM TO1-Biotin, 10 mM Tris pH 7.2
Description: as §3

[5] = Fluorescence enhancement of TO3-Biotin; type: biochemical; details: ligand TO3-B; 0.82 μM ligand, 2 μM RNA
Description: (§4) The bandwidth for all measurements was 1.5 nm for all experiments. Measurements were performed in a 0.2 cm path length cuvette in a background of 20 mM MOPS pH 7.0, 150 mM KCl, 10 μM EDTA. Fluorescence readings were taken in the absence of RNA at a ligand concentration of 0.82 μM. A concentrated, annealed stock of RNA was then added to the cuvette resulting in a final concentration of 2 μM RNA and allowed to equilibrate for 1 minute prior to taking an emission reading. Fluorescence enhancement was determined by dividing the fluorescence signal of ligand in the presence of RNA by the fluorescence signal in the absence of RNA corrected for the background of the instrument.

[6] = Temperature dependent fluorescence and UV melting; type: physicochemical
Description: FIG. 11|Temperature-dependent fluorescent and UV absorbance spectroscopy of new Mango variants. Line plots of temperature-dependent spectroscopy for Mango I (data obtained from previous work)^1, Mango II, Mango III, and Mango IV. […] Starting at 90° C., temperature was ramped down at a rate of 1° C./min to 20° C. (darker shade) and returned to 90° C. at a rate of 1° C./min (lighter shade).
Temperature dependence measurements were started at 90° C. decreasing at a rate of 1° C./min until 20° C., then returned at 1° C./min until 90° C. was reached. […] Temperature dependence of fluorescence and absorbance were measured using a Varian Cary Eclipse Fluorescence Spectrophotometer at excitation and emission peaks and a Varian Cary 100 Bio UV-visible spectrophotometer monitoring at 260 nm.

[7] = Fluorescence enhancement of TO1-Biotin; type: biochemical; details: ligand TO1-B; 0.82 μM ligand, 2 μM RNA
Description: as §4

[8] = Fluorescence enhancement of TO1-ME; type: biochemical; details: ligand TO1-ME
Description: as §4

[9] = Salt dependence of Mango/TO1-Biotin fluorescence: Na+ in place of K+; type: binding
Description: as §3

[10] = Formaldehyde resistance assay; type: physicochemical; details: in vitro, TO1-Biotin
Description: FIG. 15|Effect of formaldehyde on Mango fluorescence. […] In (b) RNA is incubated with the corresponding amounts of formaldehyde first for one hour, then TO1-Biotin is added. Data for each panel is normalized to RFU at the 0% formaldehyde, 0 min point.
RNA Mango aptamers were incubated with TO1-Biotin in WB buffer for at least one hour until equilibrium fluorescence was reached. […] Fluorescence was measured as a kinetic run at a rate of 2 readings per minute using a Varian Cary Eclipse Fluorescence Spectrophotometer, ex/em=510±2.5/535±5 nm.

[11] = Brightness and photophysics of Mango fluorophore complexes; type: physicochemical
Text: FIG. 2|RNA Mango I, II, III and IV core sequences and their properties. (a) Color coded alignment of RNA Mango I, II, III and IV. G residues in yellow are protected from DMS cleavage (data from panel d) when folded in the presence of fluorophore. Quadruplex stacks and their associated propeller sequences are numbered 1 through 4. The GAAA isolation motif of Mango I, together with two adenines essential for binding, are shown in green and red respectively. Purple shading represents a flanking stem region common for all four Mango aptamers. Schematic: A tertiary structure schematic of Mango I, showing tier 1, 2 and 3 of its quadruplex structure (T1, T2 and T3) and color-coded as in (a). […] Bottom: Top view of the Mango I core (PBD ID: 5V3F), showing the T3 tier of the quadruplex and relevant propeller residues, color coding matches the schematic and panel a. […] KD values are shown next to each titration. (c) Same as for panel b but using 20 nM TO3-Biotin. Data for panels b and c have been normalized such that Mango I has a maximum fluorescence of 1. Error bars are standard deviation of three replicates. (d) DMS chemical protection patterns for the four Mango aptamers. 3′ end-labelled RNA (terminal ^32pCp shown as a black asterisk) was subjected to DMS chemical modification followed by reduction by NaBH4 and aniline cleavage as described in the methods. […] Legend: T1—denatured T1 ladder; OH—partial alkaline hydrolysis ladder; (−) DMS—denatured reaction with ddH2O added in place of DMS; 80° C.
FIG. 13|Photophysics: excitation/emission. (a) Excitation (dark curve) and emission (light curve) spectra of each Mango. All Mangos have Δex max=510 nm and Δem max=535 nm. Color-coding is as follows: Black—Mango I, Blue—Mango II, Green—Mango III, Red—Mango IV.
Fluorescence data was gathered using a Varian Cary Eclipse Spectrophotometer unless otherwise stated. […] Fluorescence was measured at the maximum excitation and emission wavelengths of each complex (FIG. 13).

[12] = Fluorescence enhancement of TO1-PE; type: biochemical; details: ligand TO1-PE
Description: as §4

| Molecule | Kd [1] | Kd [2] | effect of high levels of Mg^2+ on fluorescence [3] | Kd [4] | Hill Coefficients K^+ ([4]; * estimated from initial rise of fluorescence) | FIE (fluorescence enhancement) [5] | thermostability [6] | FIE (fluorescence enhancement) [7] | FIE (fluorescence enhancement) [8] | fluorescence in the presence of sodium ions [9] | Hill Coefficients Na^+ ([9]; Na+ in place of K+, 25 nM RNA, 50 nM TO1-Biotin) | resistance to formaldehyde [10] | quantum yield of the TO1-Biotin complex [11] | brightness of the TO1-Biotin bound complex ([11]; TO1-Biotin complex) | brighter than Mango-I ([11]; TO1-Biotin, FIG. 2b) | FIE (fluorescence enhancement) [12] |
| --- | --- | --- | --- | --- | --- | --- | --- | --- | --- | --- | --- | --- | --- | --- | --- | --- |
| Mango-II: minimal construct engineered from isolate R2-1; SEQ ID NO: 6902 GCGUACGAAGGAGAGGAGAGGAAGAGGAGAGUACGC (chemistry not given here) | 0.00241 ± 0.00054 µM | 0.056 ± 0.002 µM | significantly resistant | 39 ± 10 mM | 1.4 ± 0.2 | 61 ± 2 | more thermostable than Mango-I | 1303 ± 20 | 401 ± 6 | did not fluoresce appreciably | 0.8 ± 0.1 | substantially resistant to formaldehyde; also recorded: remarkably formaldehyde resistant | 0.21 | 17,000 M^−1cm^−1 | 1.5 fold | 783 ± 13 |
| B1 | 0.00481 ± 0.00102 µM | 0.043 ± 0.003 µM | – | – | – | 46 ± 3 | – | 1543 ± 24 | 302 ± 6 | – | – | – | – | – | – | 825 ± 14 |
